Reference: paper PMC8708455, “Trans-ε-Viniferin Encapsulation in Multi-Lamellar Liposomes: Consequences on Pharmacokinetic Parameters, Biodistribution and Glucuronide Formation in Rats” (Nutrients, 2021)
Values joined by “and” are separate entries in the source; they are usually repeats but may differ in a detail not shown here. Equal values may be shown once. Read-outs that look alike come from different tables or passages of the source. Each block holds one compound with its values, some of them ahead of it.

What was measured:
[1] = Pharmacokinetic study: plasma kinetics after oral administration of free or encapsulated εVin; format: in vivo, rats; conditions: for occurrence of metabolites after oral administration: rats, both administration forms, data not shown; for k el: read-out: Lambda z (converted); for MRT: read-out: MRT (mean residence time) (converted); for half-life: read-out: T½; for AUC0-t: 0-4 h
Description: (§1) Experiments were conducted in accordance with Directive 2010/63/EU [51] and approved by the Bordeaux University Institutional Ethics Committee for Animal Research (IEC-AR CEEA 50, MESR approval A18380). Male Wistar rats (Janvier-LABS, Saint Berthevin, France) were maintained in controlled conditions: 12 h light/12 h dark cycle, humidity 50–60% and an ambient temperature of 24 ± 1 °C (animal facility agreement number: B33-063-917). Free access to food and water was allowed up to 16 h before experiments started. Rats were randomly divided into two groups. Group A (n = 5, average weight = 307.8 ± 7.7 g) received εVin dissolved in propylene glycol (5.25 mg/mL), while group B (n = 6, average weight = 308 ± 10.7 g) received the same dose of εVin but encapsulated in MLLs and suspended in ultra-pure water. Both solutions were administrated by oral gavage and precisely measured to reach a dose of 20 mg/kg bw of εVin. Blood was collected through the tail vein, making a slanting incision during the first collection. Rats were slightly anesthetized by isoflurane before every blood sample collection (600 µL) at the following time points: 20, 40, 60, 100, 140, 180 and 210 min after gavage. They were sacrificed at 240 min by a high dose of isoflurane and rapid exsanguination with saline solution injected in the right ventricular cardiac cavity with a peristaltic pump (10 mL/min). All blood samples were collected in heparinized tubes and centrifuged (10,000× g, 10 min) before sampling plasma. The liver, kidneys and four white adipose tissues (epididymal, retroperitoneal, mesenteric and subcutaneous) were removed, weighed and immediately immersed in liquid nitrogen. All blood and tissues samples were kept at −80 °C until analysis.
(§2) Extractions were performed as previously described with some modifications to improve quantification. For plasma extraction, 360 µL of methanol (4 °C) were added to an aliquot of 120 µL of plasma. The sample was vortexed during three minutes before centrifugation (30 min, 12,000× g, 4 °C). The supernatant (380 µL) was removed and evaporated using a SpeedVac concentrator (Labconco CentriVap, Thermo Fisher Scientific, Waltham, MA, USA). Residue was kept in −80 °C before analysis. For tissues extraction, tissues (about 0.5 g) were first cut with scalpels before being mixed with 4 mL of methanol:water (80:20, v:v). Samples were homogenized with an Ultra-Turrax homogenizer (IKA, Staufen, Deutschland) before being intensely vortexed. Then, samples were centrifuged 20 min at 10,000× g and 4 °C before sampling 3 mL of supernatant. All supernatants were evaporated using a SpeedVac concentrator and kept at −80 °C. Residues were reconstituted in 60 µL and 250 µL of methanol:water (50:50, v:v) or plasma and tissue, respectively. They were vortexed intensely and centrifuged at 12,000× g during 30 min at 4 °C before being injected the supernatant in LC-HRMS.
(§3) The quantification of εVin and the total of glucuronides (εVG) in plasma and tissues was performed as previously described with some modifications concerning the mass parameters. The U-HPLC separation was carried out with a Vanquish Flex system (Thermo Fisher Scientific, Les Ulis, France) consisting in a binary pump, an autosampler and a heated column compartment. The liquid chromatography separation was performed as previously detailed using C18 column (BEH C18 2.1 mm × 100 mm, 1.7 µm particle size, Waters, Guyancourt, France). The flow rate was set as 450 µL/min. The injection volume was 5 µL and the eluents were 0.1% formic acid in water for A and 0.1% formic acid in acetonitrile for B. The eluent B varied as follows: 0 min, 25%; 0.5 min, 25%; 3.6 min, 50%; 3.9 min, 50%; 4 min, 100%; 5.7 min, 100%; 5.8 min, 25%; 7 min, 25%. The column and sample temperature were 30 °C and 20 °C, respectively. The Exactive benchtrop Orbitrap mass spectrometer equipped with a HESI probe (both from Thermo Fisher Scientific, Bremen, Germany) was used. […]

[2] = parameters: method as in PMID 27902942; conditions: mice, oral 40 mg/kg bw; cited from earlier work
[3] = Literature pharmacokinetics of εVin after oral administration in mice (Kim et al.); format: in vivo; conditions: oral 40 mg/kg bw (ref 31) versus 20 mg/kg bw in this study
[4] = parameters: method as in PMID 30400351; conditions: rats, intraperitoneal injection, cited from earlier work; for Cmax: metabolites expressed as equivalent of the native form
[5] = Quantification in plasma, liver, kidneys and white adipose tissues 4 h after oral administration; format: in vivo; conditions: rats, 4 h after oral 20 mg/kg bw εVin
Description: as §1, §2, §3

[6] = parameters: method as in PMID 27175336; conditions: rats, oral 70 mg/kg bw, after hydrolysis with glucuronidase; cited from earlier work
[7] = male, Wistar, rat, plasma, po, 20 mg/kg, rat plasma, oral 20 mg/kg bw εVin, encapsulated form (MLLs)
[8] = male, Wistar, rat, plasma, po, 20 mg/kg, rat plasma, oral 20 mg/kg bw εVin, free form
[9] = rat plasma, oral 20 mg/kg bw εVin, encapsulated form (MLLs)
[10] = rat plasma, oral 20 mg/kg bw εVin, free form
[11] = rat plasma, oral 20 mg/kg bw εVin, free form, 20 mg/kg

occurrence of metabolites after oral administration [1]: traces
Compound: O=C(O)C1OC(Oc2ccc(C3Oc4cc(O)cc(C=Cc5ccc(O)cc5)c4C3c3cc(O)cc(O)c3)cc2)C(O)C(O)C1O (stereo not drawn) [V1G]

Cmax [1, 7]: 11.7 ± 7.3 nM
k el [1, 7]: 0.000137 s⁻¹
MRT [1, 7]: 3.27 h
Tmax ([1]; male, Wistar, rat, plasma, po, 20 mg/kg, rat plasma, oral 20 mg/kg bw εVin, encapsulated form (MLLs), read-out: Tmax (converted)): 0.333 h
half-life [1, 7]: 1.91 ± 1.34 h
Cmax [1, 8]: 15 ± 11 nM
k el [1, 8]: 0.000345 s⁻¹
MRT [1, 8]: 2.12 h
Tmax ([1]; male, Wistar, rat, plasma, po, 20 mg/kg, rat plasma, oral 20 mg/kg bw εVin, free form, read-out: Tmax (converted)): 1 h
half-life [1, 8]: 0.917 ± 0.565 h
AUC0–∞ [1, 9]: 1660.1 ± 1313.1 pmol/mL/min
AUC0-t [1, 9]: 1009.8 ± 328.3 pmol/mL/min
AUC0–∞ [1, 10]: 1919.7 ± 955.2 pmol/mL/min
AUC0-t [1, 10]: 1689.1 ± 682.0 pmol/mL/min
Cmax [1, 11]: 15.3 ± 10.5 nM
AUC0-∞ of the literature study relative to the values of this study [3]: 3.6 times
concentration in kidneys ([5]; free form): ≤ 10 pmol/g of tissue
concentration in liver ([5]; free form): ≤ 10 pmol/g of tissue
concentration in mesenteric adipose tissue ([5]; free form): 92 ± 84 pmol/g of tissue
concentration in subcutaneous adipose tissue ([5]; free form): 23 ± 12 pmol/g of tissue
concentration in the three other adipose depots (epididymal, retroperitoneal, subcutaneous) ([5]; free form): around 20 pmol/g of tissue
Compound: Oc1ccc(/C=C/c2cc(O)cc3c2[C@@H](c2cc(O)cc(O)c2)[C@H](c2ccc(O)cc2)O3)cc1 [εVin, Trans-ε-viniferin]
bioavailability [2]: 0.77%
maximal concentration (Cmax) [2]: 42 ng/mL
Cmax [4]: 3090 ng/mL

Compound: Oc1ccc([C@H]2Oc3ccc(/C=C/c4cc(O)cc(O)c4)cc3[C@@H]2c2cc(O)cc(O)c2)cc1 [δ-viniferin]
concentration of glucuronide metabolites relative to the native form [6]: up to 7 fold

occurrence of metabolites after oral administration [1]: largely in majority
Compound: O=C(O)[C@H]1O[C@@H](Oc2cc(/C=C/c3ccc(O)cc3)c3c(c2)O[C@H](c2ccc(O)cc2)[C@H]3c2cc(O)cc(O)c2)[C@H](O)[C@@H](O)[C@@H]1O [V2G]

occurrence of metabolites after oral administration [1]: traces
Compound: O=C(O)C1OC(Oc2ccc(C=Cc3cc(O)cc4c3C(c3cc(O)cc(O)c3)C(c3ccc(O)cc3)O4)cc2)C(O)C(O)C1O (stereo not drawn) [V4G]

increase of T1/2 by the encapsulation procedure ([1]; rat plasma, encapsulated versus free form, p < 0.05): ~3 times
AUC0–∞ [1, 9]: 432,315.4 ± 106,406.4 pmol/mL/min
Cmax [1, 9]: 1750 ± 876 nM
Lambda z [1, 9]: 0.0074 ± 0.0036 * min^−1
Tmax [1, 9]: 1.67 h
AUC0-t [1, 9]: 307,086.4 ± 316,383.9 pmol/mL/min
T½ ([1]; rat plasma, oral 20 mg/kg bw εVin, encapsulated form (MLLs), 20 mg/kg): 1.98 ± 1.08 h
AUC0–∞ [1, 10]: 264,191.0 ± 123,786.4 pmol/mL/min
Cmax [1, 10]: 1670 ± 1100 nM
Lambda z [1, 10]: 0.0198 ± 0.0056 min⁻¹
MRT (mean residence time) [1, 10]: 2.062 ± 0.2 h
Tmax [1, 10]: 1.67 h
AUC0-t [1, 10]: 245,827.3 ± 114,219.8 pmol/mL/min
T½ [1, 11]: 0.633 ± 0.183 h and 0.637 ± 0.187 h
maximal plasma concentration of glucuronides relative to the aglycone (native) form ([1]; rat plasma, oral 20 mg/kg bw εVin, free form, listed as glucuronide forms, 20 mg/kg): more than 100 times
maximal plasma concentration of glucuronides relative to the aglycone (native) form ([1]; rat plasma, oral 20 mg/kg bw εVin, free form, listed as total glucuronides, 20 mg/kg): 108 times
concentration in kidneys ([5]; encapsulated form): 114 ± 12 pmol/g of tissue
concentration in liver ([5]; encapsulated form): 1206 ± 304 pmol/g of tissue
concentration in mesenteric adipose tissue ([5]; encapsulated form): 213 ± 81 pmol/g of tissue
concentration in plasma at 4 h ([5]; encapsulated form): 700 ± 175 nM
concentration in kidneys ([5]; free form): 76 ± 39 pmol/g of tissue
concentration in kidneys relative to the native molecule ([5]; free form): 14 times
concentration in liver ([5]; free form): 604 ± 320 pmol/g of tissue
concentration in liver relative to the native molecule ([5]; free form): 60 times
concentration in mesenteric adipose tissue ([5]; free form): 108 ± 75 pmol/g of tissue
concentration in plasma at 4 h ([5]; free form): 317 ± 186 nM
concentration in subcutaneous adipose tissue ([5]; free form): 105 ± 83 pmol/g of tissue
Compound: Trans-ε-viniferin-glucuronide [εVG]
Cmax [4]: 5160 ng/mL
Tmax [4]: 1 h
